# Results taken from patent publication US20240156765A1, “METHODS OF NEUROPROTECTION AND USES THEREOF” (UNIVERSITY OF TENNESSEE RESEARCH FOUNDATION, priority 2020, published 2024).
# Tests used:
# [1] = PRG release from formulation; type: physicochemical; conditions: as an aqueous eye drop
# [2] = test system: Dutch belted rabbits; assay: Single-drop IOP-lowering efficacy of PRG eye drop formulations; type: in vivo
# Procedure: At 24 hours after dosing, IOP is still reduced by >20%.
# Moreover, the combined effect of all three layers of our W/O/W ME is critical for enhancing the efficacy of PRG. […] Using this same model, we will evaluate our optimized formulations from Test 1.1.
# Research Design and Methods: Dutch belted rabbits (Envigo Rabbitry; formerly Covance) will be used in this single-dose design study. Rabbits from this rabbitry can have higher baseline IOP values than those purchased from other rabbitries. Rabbits (equally balanced between males and females) will be acclimated to handling and IOP measurements for at least seven days before initiation of the study. Slit-lamp biomicroscopic and fundoscopic examinations will be performed before and after the study. Our top three formulations from Test 1.1 will be tested in this model using our methods^12. The IOP of both eyes will be measured using a rebound tonometer (Tono-Pen AVIA Vet, Reichert) immediately before the formulation application (baseline, 8 am) and at hourly time intervals after application until the IOP returns to baseline. Using a sterile micropipette tip, thirty microliters of the formulation containing PRG ME or blank control will be instilled topically into one eye of each rabbit, while the fellow eye will receive the formulation vehicle, and therefore serve as controls. Rabbits will be dosed daily at 8 am for 21 days, and IOP collected at 8 am (immediately pre-dosing) and at the time at which the maximum IOP reduction is measured (Tmax) using our methods^12. Curves similar to FIG. 16 will be generated. Biocompatibility of the antioxidant-containing formulations will be assessed using with slit lamp biomicroscopy as in FIG. 17. The person performing the studies will be blinded regarding which eye receives the medicated formation and which one receives the blank control for each rabbit. Assuming a power of 80%, and a marginal difference in IOP outcome of 30%, we estimate that this study will require 10 rabbits. We will also evaluate these formulations in C57Bl/6J (B6) mice and cynomolgus monkeys, which will allow for species confirmation and comparison.
# [3] = target: CACNA2D1 (Homo sapiens, UniProt P54289); conditions: listed as PRG; cited from earlier work
# [4] = test system: BXD29 mice; assay: Daily topical PRG ME in BXD29 mice (normal tension glaucoma model): IOP and optic nerve axons; type: in vivo
# Excerpt: Objective: An obstacle in this study is the in vivo assessment of any direct neuroprotective effects of PRG that are independent of IOP lowering. […] These characteristics make BXD29 ideal for evaluating the direct neuroprotective properties of PRG on RGCs by eliminating indirect effects that would be mediated through IOP reduction.
# We have evidence to show, without wishing to be bound by theory, that topical dosing with our PRG ME is neuroprotective to RGC axons in the ON. We dosed BXD29 mice daily with PRG ME beginning at 5 weeks of age (FIG. 9A) before ON degeneration was marked. […] In contrast, ON from mice dosed with unmedicated ME had loss of axon profiles and increased areas of debris (FIG. 9C). The studies will evaluate the role of PRG as a RGC neuroprotectant and define its cellular mechanism of action.
# [5] = not told; cited from earlier work
# [6] = PRG in an oral solution; cited from earlier work
# [7] = test system: γ-aminobutyric acid (GABA) receptors; conditions: cited from earlier work
# [8] = test system: intraocular pressure (IOP); assay: IOP lowering by topically applied pregabalin without microemulsion (aqueous); type: in vivo
# [9] = PRG in the absence of the ME (Carbopol 981 gel), single drop
# [10] = topically applied PRG, aqueous / initial formulation without ME
# [11] = topically applied PRG, aqueous / initial formulation without ME, listed as PRG
# CACNA2D1, sequence (P54289 25-1103): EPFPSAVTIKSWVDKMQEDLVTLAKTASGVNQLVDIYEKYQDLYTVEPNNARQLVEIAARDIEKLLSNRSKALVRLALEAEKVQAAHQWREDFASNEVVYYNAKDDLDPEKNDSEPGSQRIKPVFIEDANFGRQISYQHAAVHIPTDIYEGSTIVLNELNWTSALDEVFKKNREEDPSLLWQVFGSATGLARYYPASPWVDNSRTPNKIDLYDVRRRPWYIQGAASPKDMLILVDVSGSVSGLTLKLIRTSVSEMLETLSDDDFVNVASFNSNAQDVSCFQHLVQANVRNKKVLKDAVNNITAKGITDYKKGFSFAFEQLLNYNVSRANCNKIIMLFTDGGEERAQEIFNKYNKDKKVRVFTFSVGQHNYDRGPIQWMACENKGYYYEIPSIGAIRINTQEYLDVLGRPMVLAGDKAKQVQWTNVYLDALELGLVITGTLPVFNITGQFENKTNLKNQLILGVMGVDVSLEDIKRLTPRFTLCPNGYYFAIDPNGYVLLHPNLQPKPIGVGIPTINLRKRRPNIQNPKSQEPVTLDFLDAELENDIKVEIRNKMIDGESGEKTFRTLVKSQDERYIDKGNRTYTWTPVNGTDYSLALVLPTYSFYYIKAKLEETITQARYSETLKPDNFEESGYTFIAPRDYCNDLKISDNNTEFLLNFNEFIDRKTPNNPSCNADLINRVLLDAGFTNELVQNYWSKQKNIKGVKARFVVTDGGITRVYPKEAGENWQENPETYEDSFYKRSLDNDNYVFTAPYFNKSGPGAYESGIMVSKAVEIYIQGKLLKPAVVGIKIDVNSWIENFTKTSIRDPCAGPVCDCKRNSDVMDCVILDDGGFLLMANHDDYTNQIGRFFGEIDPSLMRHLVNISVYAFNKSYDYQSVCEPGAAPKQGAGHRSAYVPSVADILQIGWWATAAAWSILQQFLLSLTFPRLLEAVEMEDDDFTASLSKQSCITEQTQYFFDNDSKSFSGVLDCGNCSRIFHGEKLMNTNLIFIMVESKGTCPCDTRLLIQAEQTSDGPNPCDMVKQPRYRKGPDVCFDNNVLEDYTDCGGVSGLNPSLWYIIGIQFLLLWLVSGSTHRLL
compound,measurement,setting,value
CC(C)C[C@H](CN)CC(=O)O [pregabalin],PRG release time,[1],3 h
same,AUC of IOP reduction,[2]; PRG in the absence of the ME,38 mmHg·hr
same,IOP reduction,[2]; [9],30%
same,time at which IOP returns to baseline,[2]; [9],10 h
same,"IOP lowering, dose dependence","[2]; topical dosing with PRG, Dutch belted rabbits",dose dependent manner
same,affinity for CACNA2D1,[3],high affinity and specificity
same,optic nerve (ON) axons,[4]; daily topical dosing for 6 weeks from 5 weeks of age,prevents degeneration of axons
same,IOP response,"[4]; topical dosing, up to 6 weeks daily",unresponsive
same,membrane permeability,[5],high
same,chemical stability,[6],> 1 year
same,binding to GABA receptors,[7],does not bind
same,"IOP lowering, dose dependence",[8]; topical dosing,dose dependent manner
same,IOP reduction,[8]; [10],20%
same,time at which IOP returns to baseline,[8]; [10],≤ 7 h
same,IOP reduction,[8]; [11],17%
same,time at which IOP returns to baseline,[8]; [11],6 h
same,IOP lowering,[8]; without the microemulsion,about 20%
same,time at which IOP returns to baseline,[8]; without the microemulsion,8 to 10 h
